Read-outs that look alike come from different tables or passages of the source.
How the values were obtained:
[1] = system: Ea.Hy926 cells; assay: Alamar Blue cytotoxicity on Ea.Hy926 cells; conditions: for IC50: read-out: IC50 EA.hy926, 48 h exposure, Alamar Blue; for Selectivity Index SIa: SIa = IC50 HaCaT/IC50 EA.hy296
Method: (§1) To the growth media of all the cell lines, 1% penicillin/streptomycin and 10% FBS were added. The cell lines were cultured in standardized conditions (37 °C and 5% CO2) with the initiation of the experimental protocol once an 80–90% confluency was reached.
(§2) The spectrophotometric quantification (λemission = 590/35, λexcitation = 530/25) of resorufin by the metabolic-dependent conversion of the resazurin by the viable cells was achieved using the microplate reader Synergy 2 Multi-Mode. The cells were seeded in 100 µL of growth media in 96-well plates at the specified density (Ea.Hy296—5 × 10^3 cells/well, HaCaT—8 × 10^3 cells /well, and A375—7 × 10^3 cells /well) and were left overnight to attach. […] After 48 h of cultivation, the growth media was removed, and the AB assay was performed for the quantification of the viable cells post-exposure to the selected compounds. Three biological replicates were performed for each biological experiment with six technical replicates, using 0.2% DMSO as the negative control (NC) for data normalization (100% viability). The IC50 values were calculated based on the dose–cellular viability curve ratio obtained by fitting the experimental data with a 4-parameter logistic curve (SigmaPlot 11).

[2] = system: HaCaT cells; assay: Alamar Blue cytotoxicity on HaCaT cells; type: cell-based; conditions: Homo sapiens, read-out: IC50 HaCaT
Method: as §1, §2

[3] = target: T1, Human VEGFR-2 (KDR) (Homo sapiens, UniProt P35968); assay: In vitro VEGFR2 kinase inhibition assay; type: biochemical; conditions: for inhibition at 0.5 µM: read-out: VEGFR2 Kinase Inhibitory Activity % of Inhibition (500 nM); for IC50: isolated kinase domain, 45 min at 30 °C
T1 construct: purchased BPS Bioscience 40325
T1 sequence (P35968 805-1356): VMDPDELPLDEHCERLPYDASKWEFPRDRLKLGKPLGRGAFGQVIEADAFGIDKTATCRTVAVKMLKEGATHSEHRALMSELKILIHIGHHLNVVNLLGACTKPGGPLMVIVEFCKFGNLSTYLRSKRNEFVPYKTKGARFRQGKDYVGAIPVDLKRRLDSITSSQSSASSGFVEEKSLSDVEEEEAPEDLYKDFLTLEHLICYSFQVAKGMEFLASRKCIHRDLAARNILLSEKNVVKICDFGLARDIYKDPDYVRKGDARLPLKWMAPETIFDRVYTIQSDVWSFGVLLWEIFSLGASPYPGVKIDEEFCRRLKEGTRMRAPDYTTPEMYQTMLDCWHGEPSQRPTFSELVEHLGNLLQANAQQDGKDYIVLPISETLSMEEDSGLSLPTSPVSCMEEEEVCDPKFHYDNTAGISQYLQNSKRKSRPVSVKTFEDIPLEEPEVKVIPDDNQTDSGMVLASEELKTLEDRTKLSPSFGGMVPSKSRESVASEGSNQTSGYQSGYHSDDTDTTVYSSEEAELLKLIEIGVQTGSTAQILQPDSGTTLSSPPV
Method: The experimental assay was conducted according to the manufacturer’s instructions. […] The incubation time was set for 45 min at 30 °C. Inhibitory potential towards the kinase domain was quantified by luminescence detection, after the addition of the Kinase-Glo™ MAX reagent (Promega, Madison, WI, USA, catalog #v6071). After further incubation for an additional 15 min, the luminescence was recorded using a microplate reader Synergy 2 Multi-Mode.

[4] = system: A375 cells; assay: Alamar Blue cytotoxicity on A375 cells; type: cell-based, human; conditions: for IC50: Homo sapiens, read-out: IC50 A375; for Selectivity Index SIb: SIb = IC50 HaCaT/IC50 A375
Method: as §1, §2

[5] = system: chick chorioallantoic egg membrane (CAM); assay: Chorioallantoic egg membrane (CAM) assay; type: in vivo; conditions: 1 µM, 5 µM and 10 µM, 5-day protocol
Method: Eggs without deformities and weighing between 50 and 60 g were selected. The eggs were cleaned with 70% alcohol and incubated for 14 days in standard conditions (37.5 °C, humidity 65%). On the 4th day of incubation, approximately 10–12 mL of egg white (albumen) was extracted from the top of each egg using a medical syringe with a needle for the detachment of the egg membrane. On the 5th day, the eggs were checked for fertility using a light source, and a window large enough to reveal the vascular plexus was cut out with forceps. The window was then sealed with medical tape to maintain favorable conditions for embryonic development. Optimal ventilation conditions, temperature, and humidity were ensured throughout incubation to facilitate proper embryo growth. […] For this purpose, a transparent silicone ring was applied to the vascular plexus of the CAM using a tweezer. In this ring, 10 μL of each test sample was applied for 4 days. […] Pictures were taken daily (days 1–5 of exposure) to observe the effects of the samples on the angiogenic process, and the changes observed were noted. For microscopic analysis, a Zeiss SteREO Discovery.V8 stereomicroscope was used, coupled with a Zeiss Axiocam 105 digital camera, both connected to a computer. The images presented in this study were captured using the ZEN core 3.8 software. The scale bar from the images represents a measurement of 500 μm.

[6] = system: Ea.Hy926 cells; assay: Wound healing (scratch) assay; type: cell-based, human; conditions: 12 h
Method: Confluent Ea.Hy926 monolayers were formed by seeding the cells for 24 h in a 12-well plate incubated in a starvation medium. After the confluency was reached, the medium was removed and a scratch was performed using the sterile tip of a 100 µL pipette. Detached cells were removed by washing the cellular monolayers twice with DPBS, and then the cells were photographed individually (phase-contrast microscopy, 10x objective) to assess the wound area at the moment of exposure (T0). […] For each experiment, an image was captured 12 h post-exposure (T12), and the rate of Ea.Hy926 cell migration was quantitatively evaluated by the wound healing percentage (%) calculated by the formula (AT0 − AT12)/ AT0 × 100 [35]. The scratch areas at T0 (AT0) and T12 (AT12), respectively, were determined with the IKOSA Prisma Application Wound Healing (Scratch) assay (v2.2.0) and are expressed as square pixels (Px^2).

[7] = A-375, 48 h exposure, Alamar Blue

Compound	IC50 [1] [µM]	IC50 ([2]; 48 h exposure, Alamar Blue) [µM]	inhibition at 0.5 µM [3] [%]	IC50 [4, 7] [µM]	anti-angiogenic effect in CAM [5]	Selectivity Index SIa [1]	IC50 [3] [µM]	Selectivity Index SIb [4]	inhibition of the mobility of Ea.Hy296 cells ([6]; 5 µM)	IC50 ([2]; 48 h) [µM]	IC50 ([4]; A-375, 48 h) [µM]	motility inhibition potential ([6]; 1.25-5 µM, versus 0.2% DMSO)	cytotoxic potential relative to sorafenib ([1]; Ea.Hy296 cells, 48 h) [fold]	reduction in the wound closure area ([6]; highest evaluated concentration (TSC9 12.5 µM, TSC10 7.5 µM)) [%]
COc1cccc(NC(=S)NN=Cc2ccc(Oc3ncnc4cc(OC)c(OC)cc34)cc2)c1 [TSC8, N-(3-methoxyphenyl)-2-(4-((6,7-dimethoxyquinazolin-4-yl)oxy)benzylidene)hydrazine-1-carbothioamide]	> 100	> 100	0	> 100										
COc1cc2ncnc(Oc3ccc(/C=N/NC(=S)Nc4cccc(Cl)c4Cl)cc3)c2cc1OC [TSC10, (E)-N-(2,3-dichlorophenyl)-2-(4-((6,7-dimethoxyquinazolin-4-yl)oxy)benzylidene)hydrazine-1-carbothioamide]	12.8	52.4	89.1	28.6	potent anti-angiogenic properties were observed	4.09	0.119	1.83						
COc1cc2ncnc(Oc3ccc(/C=N/NC(=S)Nc4cccc(C(F)(F)F)c4)cc3)c2cc1OC [TSC2, N-(3-(trifluoromethyl)-phenyl)-2-(4-((6,7-dimethoxyquinazolin-4-yl)oxy)benzylidene)-hyrazine-1-carbothioamide]	> 100	> 100	59.5	> 100			0.341							
CNC(=O)c1cc(Oc2ccc(NC(=O)Nc3ccc(Cl)c(C(F)(F)F)c3)cc2)ccn1 [Sorafenib, sorafenib, reference compound]	10.2				potent anti-angiogenic effect was observed across all three tested concentrations				almost total inhibition	12.9	5.26			
COc1cc2ncnc(Oc3ccc(C=NNC(=S)Nc4ccc(F)cc4)cc3)c2cc1OC [TSC3, N-(4-fluorophenyl)-2-(4-((6,7-dimethoxyquinazolin-4-yl)oxy)benzylidene)hydrazine-1-carbothioamide]	26.5	28.6	62.1	> 100		1.08	0.239							
C=CCNC(=S)NN=Cc1ccc(Oc2ncnc3cc(OC)c(OC)cc23)cc1 [TSC1, N-allyl-2-(4-((6,7-dimethoxyquinazolin-4-yl)oxy)benzylidene)hydrazine-1-carbothioamide]		~100	52.7	> 100		2.00	0.389							
COc1cc2ncnc(Oc3ccc(C=NNC(=S)Nc4ccccc4)cc3)c2cc1OC [TSC5, N-phenyl-2-(4-((6,7-dimethoxyquinazolin-4-yl)oxy)benzylidene)hydrazine-1-carbothioamide]	7.47	16.4	71	17.4	pronounced decrease in CAM vascularization	2.20	0.378	0.95				11.19–12.82%	1.35	
COc1cc2ncnc(Oc3ccc(C=NNC(=S)Nc4ccc(Cl)c(C(F)(F)F)c4)cc3)c2cc1OC [TSC6, N-(4-chloro-3-(trifluoromethyl)phenyl)-2-(4-((6,7-dimethoxyquinazolin-4-yl)oxy)benzylidene)hydrazine-1-carbothioamide]	16.5	23	0	61		1.40		0.38						
COc1cc2ncnc(Oc3ccc(C=NNC(=S)Nc4ccc(F)c(F)c4)cc3)c2cc1OC [TSC7, N-(3,4-difluorophenyl)-2-(4-((6,7-dimethoxyquinazolin-4-yl)oxy)benzylidene)hydrazine-1-carbothioamide]	43.2	53.8	21.1	> 100		1.25								
COc1cc2ncnc(Oc3ccc(C=NNC(=S)Nc4ccc(Cl)cc4)cc3)c2cc1OC [TSC4, N-(4-chlorophenyl)-2-(4-((6,7-dimethoxyquinazolin-4-yl)oxy)benzylidene)hydrazine-1-carbothioamide]	14.5	15.9	40.5	14.8		1.10		1.08						
COc1cc2ncnc(Oc3ccc(C=NNC(=S)NC(C)C)cc3)c2cc1OC [TSC9, N-isopropyl-2-(4-((6,7-dimethoxyquinazolin-4-yl)oxy)benzylidene)hydrazine-1-carbothioamide]	12.6	86.8	70.5	> 100	anti-angiogenic properties were also demonstrated across all three tested concentrations	6.90	0.379							25.63
